Data reported in patent publication US5430148A, “Antiproliferative quinazolines” (Agouron Pharmaceuticals, Inc., priority 1992, dated 1995).

How the values were obtained:
[1] = literature; cited from earlier work
[2] = tested on: ovarian, liver and breast cancer; settings: literature; cited from earlier work
[3] = tested on: GC3/M TK- cells; assay: Inhibition of growth of tumor cells, thymidine kinase-deficient human colon adenocarcinoma GC3/M TK- (MTT); assay type: cell-based; settings: Homo sapiens, GC3/MTK-, 120 h; for IC50: 5 days continuous exposure, MTT, read-out: Cell Culture IC50, GC3-M (TK-)
Description: (§1) In Vitro Testing to Determine Inhibition of Growth of Tumor Cells
(§2) Growth was measured over 3 days (L1210) or 5 days (CCRF-CEM, GC3 /M TK^-) of continuous exposure to varying concentrations of each test compound, added 4 h. after initial cell plating, by the MTT-tetrazolium reduction assay of T. J. Mosmann [J. Immunol. Meth. […] Water insoluble derivatives were dissolved in DMSO and diluted to a final concentration of 0.5% solvent in cell cultures.

[4] = molecular target: E. coli TS (thymidylate synthase) (Escherichia coli, UniProt P0A884); assay: Inhibition constants against 5,10-methylenetetrahydrofolate for thymidylate synthase, E. coli enzyme (tritium release); assay type: biochemical
Description: (§3) Determination of Inhibition Constants Against 5,10-Methylenetetrahydrofolate for the Enzyme Thymidylate Synthase
(§4) Inhibition constants, Ki, slope and Ki, intercept [W. W. Cleland, Biochim. Biophys. […] The cofactor was present as the variable substrate under conditions of saturating radiolabelled 2'-deoxyuridine 5-monophosphate (dUMP). […] Assays of human TS also contained 1-5 μg/mL bovine serum albumin to stabilize the protein. Reactions were initiated by the addition of enzyme and were carried out for 5 minutes at 24° C., and then quenched by the addition of charcoal (15 mg in 0.1 mL H2 O). The quenched samples were centrifuged at 10,000 rpm for 12-15 min at […] to remove unreacted dUMP which had bound to the charcoal, and 0.1 mL of the supernatant was counted by liquid scintillation in the presence of 5 mL ecolume to determine the release of tritium label from the 5-position of the dUMP. […] Experimental results were analyzed by EZ-FIT, a nonlinear regression analysis program (Perrella Scientific, Springfield, Pa.) which was used to fit all data points simultaneously to a mixed noncompetitive inhibition scheme.

[5] = molecular target: human TS (thymidylate synthase) (Homo sapiens, UniProt P04818); assay: Inhibition constants against 5,10-methylenetetrahydrofolate for thymidylate synthase, human enzyme (tritium release); assay type: biochemical; settings: cofactor as variable substrate, pH 7.6, 24° C., read-out: Ki Data, human thymidylate synthase
Description: as §3, §4

[6] = tested on: CCRF-CEM cells; assay: Inhibition of growth of tumor cells, CCRF-CEM human lymphoblastic leukemia (MTT); assay type: cell-based; settings: Homo sapiens, CCRF-CEM, 120 h, 5 days continuous exposure, MTT; read-out: Cell Culture IC50, CCRF-CEM
Description: as §1, §2

[7] = tested on: L1210 murine leukemia cells; assay: Inhibition of growth of tumor cells, L1210 murine leukemia (MTT); assay type: cell-based; settings: Mus musculus, L1210, 72 h, 3 days continuous exposure, MTT; read-out: Cell Culture IC50, L1210
Description: as §1, §2

Sequence of E. coli TS (thymidylate synthase) (P0A884 whole entry): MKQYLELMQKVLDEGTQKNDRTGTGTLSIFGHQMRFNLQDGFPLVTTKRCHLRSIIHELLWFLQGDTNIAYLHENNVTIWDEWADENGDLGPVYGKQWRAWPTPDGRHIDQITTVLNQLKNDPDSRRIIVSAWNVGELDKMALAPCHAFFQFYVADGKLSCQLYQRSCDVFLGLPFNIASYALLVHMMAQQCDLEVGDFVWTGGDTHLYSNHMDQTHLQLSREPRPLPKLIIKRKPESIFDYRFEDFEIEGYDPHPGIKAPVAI
Sequence of human TS (thymidylate synthase) (P04818 2-313 limits assumed): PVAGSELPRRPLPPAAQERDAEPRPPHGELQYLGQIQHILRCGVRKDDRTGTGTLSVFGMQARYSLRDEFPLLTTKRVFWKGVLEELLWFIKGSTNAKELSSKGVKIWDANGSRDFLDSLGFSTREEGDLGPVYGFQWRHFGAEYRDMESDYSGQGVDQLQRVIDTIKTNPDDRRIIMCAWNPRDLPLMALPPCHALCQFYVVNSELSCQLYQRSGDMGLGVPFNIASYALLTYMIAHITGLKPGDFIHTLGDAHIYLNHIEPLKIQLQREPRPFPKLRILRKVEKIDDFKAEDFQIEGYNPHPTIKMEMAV

| Structure (SMILES) | toxicities [1] | activity against cancer [2] | IC50 [3] | inhibition at 10 µM ([3]; @ > 10 μM, 5 days) | Ki [4] | Ki [5] | IC50 [6] | IC50 [7] | inhibition at 25 µM ([3]; @ > 25 μM, 5 days) |
| --- | --- | --- | --- | --- | --- | --- | --- | --- | --- |
| C#CCN(Cc1ccc2nc(N)[nH]c(=O)c2c1)c1ccc(C(=O)N[C@@H](CCC(=O)O)C(=O)O)cc1 [10-propargyl-5,8-dideazafolic acid] | troublesome hepatic and renal toxicities | activity against ovarian, liver and breast cancer | – | – | – | – | – | – | – |
| Cc1nc2cccc(Cn3cncc3-c3ccc([N+](=O)[O-])cc3)c2c(=O)[nH]1 [Compound 32A] | – | – | > 10 µM | 30% | > 10 µM | > 10 µM | 6 µM | > 10 µM | – |
| COc1ccc(-c2cncn2Cc2cccc3nc(C)[nH]c(=O)c23)cc1 [Compound 33A] | – | – | > 25 µM | – | 36 ± 1.5 µM | 47 ± 17 µM | 18 µM | 25 µM | 20% |
